Starred links: 1 amine or outer side, 2 acyl side, 3 side chain; linkers in the order of their positions; H or OH if unused. Non-standard residues stand in square brackets, D forms with d. Primed or numbered codes have the meaning given here. No end group written: not given here. Kβ = L-β-lysine, O=C(C[C@H](CCCN[*:3])N[*:1])[*:2]; Kβ(3) = beta-amino acid residue (Lys analogue); Kβ″ = beta-amino acid residue (K); β3hA = C[C@H](N)CC(=O)O; Yβ = β-tyrosine
Tested on: SJL/J mice exhibiting MBP (85-109) induced relapsing remitting form of EAE
Assay: Therapeutic activity in MBP (85-109) induced relapsing remitting EAE, treatment from day 11
Type: in vivo
Settings: SJL/J mice, RR EAE; for Therapeutic activity in comparison to GA (Therapeutic activity (Analogs) − Therapeutic activity GA) / Therapeutic activity in comparison to J5 (Therapeutic activity (Analogs) − Therapeutic activity (J5)): 0.1 mg daily for two weeks; for Therapeutic activity = % reduction in cumulative clinical disability score: synthetic peptides, 0.1 mg daily for two weeks from day 11 post-immunization
Procedure: SJL/J and C57BL6/J mice procured from Jackson's laboratory (Bar Harbor, Me.) were maintained under standard housing conditions in the central animal facility at NII as per institutional ethical committee guidelines. 8-10 week old female SJL/J mice were used throughout the study.
To induce RR EAE or chronic progressive EAE, SJL/J or C57BL6/J mice were immunized subcutaneously with 0.2 mg of MBP (85-109) or 0.1 mg MOG (35-55) emulsified in CFA and 200 ng of pertussis toxin was injected intraperitoneally on day 0 and day 2 so as to permeablize the blood brain barrier. All the animals in various experimental groups were scored daily for clinical disability on a scale of 0-6 where 0=no neurological symptoms, 1=limp tail, 2=weakness of hind limbs or ataxia, 3=incomplete paralysis of hind limbs, 4=complete paralysis of hind limbs, 5=complete paralysis of all four limbs, 6=dead. Diseased animals were provided easy access to food and water.
GA, J91, J92, S101, S102, S103 for two weeks and scored for clinical disability.

Row | Substance | Therapeutic activity in comparison to GA (Therapeutic activity (Analogs) − Therapeutic activity GA) [%] | Therapeutic activity in comparison to J5 (Therapeutic activity (Analogs) − Therapeutic activity (J5)) [%] | Therapeutic activity = % reduction in cumulative clinical disability score [%]
1 | EKPKVEβ^3Aβ^3Yβ^3Kβ^3Aβ^3Aβ^3Aβ^3Aβ^3Pβ^3Aβ^3 [Analog S10] | 19.89 | 15.94 | 51.23
2 | EKPKVEAYβ^3Kβ^3Aβ^3Aβ^3Aβ^3Aβ^3Pβ^3Aβ^3 [Analog S7] | 22.46 | 18.5 | 53.8
3 | KβVβEβAβYβKβAβAβAβAβ [Analog S64] | −7.38 | −11.3369 | 23.96
4 | EKPKVEAYKAβAβAβAβPAβ [Analog S45] | 23.53 | 19.57 | 54.87
5 | Vβ^3EAYβ^3Kβ^3 [Analog S40] | 13.9 | 9.947 | 45.24
6 | KVEAYKAAβ^3Aβ^3Aβ^3 (KVEAYKA[β3hA][β3hA][β3hA]) [Analog S19] | 5.989 | 2.032 | 37.3262
7 | KVEAβ^3Yβ^3Kβ^3 [Analog S30] | 0.8556 | −3.102 | 32.19
8 | VEAβYβKβ [Analog S75] | −5.5615 | −9.519 | 25.7754
9 | KVEAYKβ^3Aβ^3Aβ^3Aβ^3Aβ^3 [Analog S21] | 17.97 | 14.01 | 49.3
10 | EβKβPKβ^3Vβ^3Eβ^3AβYβ^3Kβ^3AβAβAβ^3Aβ^3PAβ [Analog S80] | 30.7 | 26.74 | 62.03
11 | KVEAYKAβ^3Aβ^3Aβ^3Aβ^3 (KVEAYK[β3hA][β3hA][β3hA][β3hA]) [Analog S20] | 16.9 | 12.94 | 48.24
12 | KVEβAβYβKβAβAβAβAβ [Analog S62] | 5.455 | 1.497 | 36.79
13 | KVEAYβKβ (KVEA[Yβ][Kβ″]) [Analog S67] | −12.9412 | −16.8984 | 18.4
14 | VEAYβKβ (VEA[Yβ][Kβ(3)]) [Analog S74] | −9.947 | −13.9037 | 21.39
15 | VEβAβYβKβ [Analog S76] | −7.914 | −11.8717 | 23.42
16 | EKPKVEAYKβAβAβAβAβPAβ (EKPKVEAY[Kβ]XXXXPX; not fully specified (residues 10, 11, 12, 13, 15); printed as EKPKVEAYKβAβAβAβAβPAβ) [Analog S46] | 21.93 | 17.97 | 53.26

Row | Substance | Therapeutic activity in comparison to GA (Therapeutic activity (Analogs) − Therapeutic activity GA) [%] | Therapeutic activity in comparison to J5 (Therapeutic activity (Analogs) − Therapeutic activity (J5)) [%] | Therapeutic activity = % reduction in cumulative clinical disability score [%]
17 | EKPKVEAβYβKβAβAβAβAβPAβ [Analog S48] | 22.89 | 18.93 | 54.2246
18 | EKβ^3Pβ^3Kβ^3Vβ^3Eβ^3Aβ^3Yβ^3Kβ^3Aβ^3Aβ^3Aβ^3Aβ^3Pβ^3Aβ^3 [Analog S14] | 27.91 | 23.96 | 59.25
19 | KVEAβYβKβ [Analog S68] | −5.134 | −9.091 | 26.2
20 | KVβ^3Eβ^3Aβ^3Yβ^3Kβ^3 [Analog S32] | 11.23 | 7.273 | 42.57
21 | KVEAYKAβAβAβAβ [Analog S58] | 11.02 | 7.059 | 42.35
22 | KVβEβAβYβKβ [Analog S70] | −16.8984 | −20.8556 | 14.4385
23 | KVEAYKAAAA (Peptide analog) [Analog J5a, reference compound] | −2.995 | −6.952 | 28.34
24 | EKPKVEAYKAAAAβPAβ [Analog S42] | 3.316 | −0.6417 | 34.65
25 | KβVβEβAβYβKβ [Analog S71] | −14.9519 | −18.9091 | 16.39
26 | VEβ^3Aβ^3Yβ^3Kβ^3 [Analog S38] | −4.813 | −8.77 | 26.52
27 | EKPKVEAYβKβAβAβAβAβPAβ [Analog S47] | 20.96 | 17.01 | 52.3
28 | EβKβPKβ^3Vβ^3Eβ^3AβYβ^3Kβ^3AβAβAβAβ^3PAβ [Analog S79] | 28.77 | 24.81 | 60.11
29 | Vβ^3Eβ^3Aβ^3Yβ^3Kβ^3 [Analog S39] | 9.519 | 5.561 | 40.86
30 | KVEAYKAAAAβ^3 (KVEAYKAAA[β3hA]) [Analog S17] | −2.032 | −5.989 | 29.3
31 | KVEAYK (Peptide analog) [Analog J5b, reference compound] | −10.9091 | −14.8663 | 20.43

— US20140348861A1, “SYNTHETIC PEPTIDES AND RANDOM COPOLYMERS FOR THE TREATMENT OF AUTOIMMUNE DISORDERS” (NATIONAL INSTITUTE OF IMMUNOLOGY, priority 2011, published 2014)
